Results published in article PMC3144881, “Computational Reverse-Engineering of a Spider-Venom Derived Peptide Active Against Plasmodium falciparum SUB1” (PLoS ONE, 2011).

Assays:
[1] = tested on: P. falciparum 3D7 segmented schizonts (egress/invasion); assay: Merozoite egress/invasion assay, synchronized schizonts, flow cytometry (YOYO-1); format: cell-based, Plasmodium falciparum; details: 10 μM E64, 12 hr, 0.5% segmented schizonts, vs mock control
[2] = tested on: P. falciparum 3D7 segmented schizonts (egress/invasion); details: cited from earlier work
Description: A synchronised culture composed of segmented schizontes of P. falciparum (3D7 clone) at 0.5% parasitemia and 1% hematocrit is performed in a 24 wells plate. An aliquot corresponding to 10% of the starting culture (T ) is diluted in a solution at 0.04% of glutaraldehyde in PBS (Dulbecco) and store at 4 C for further flow cytometry analysis.

recombinant PfSUB1 [3] = target: T1, recombinant PfSUB1 (Plasmodium falciparum, UniProt Q8I0V0); assay: Enzymatic test: inhibition of recombinant PfSUB1, Dabsyl/Edans peptide substrate; format: biochemical; details: translated from the measured PfSUB1 Ki
T1 construct: Culture supernatant containing the secreted and active PvSUB1 or PfSUB1 recombinant enzymes was harvested; 6xHis (C); made in house; host or cells: Sf9 insect cells (baculovirus)

[4] = tested on: P. falciparum clone 3D7 (asynchronous culture); details: read-out: EC50 on the asynchronous culture of P. falciparum intra-erythrocytic cycle; ± 6 (SEM); clone 3D7, 0,5% parasitemia, 1% hematocrit, 48 hours contact, 10 μM hypoxanthine, 37 °C
Description: Asexual cultures of reference clone 3D7 obtained from MR4 (www.MR4.org) was maintained in continuous cultures following the method of Trager an Jensen, except that the medium was composed of RPMI 1640 medium supplemented with 10% decomplemented human serum (AB+), hypoxanthine 100 [drawing 51] M, gentamycin […]. Parasites were incubated at 37 [drawing 52] C in an atmosphere composed of 5%O [drawing 53] , 5%CO [drawing 54] and 90%N [drawing 55] . […] EC [drawing 57] have been determined following nonlinear regression analysis using HN-NonLin V1.1 software (http://malaria.farch.net).

P. falciparum = details: intra-erythrocytic cycle; cited from earlier work
fungi, bacteria = details: cited from earlier work
From the text: (§1) In addition to therapies based on small molecules such as chloroquine, artemisinins, quinine and atovaquone, the development of new classes of molecules based on proteins or peptidomimetics [8] is an active field of research. […] Choi et al. have isolated from the ven ...

human epithelial cells = details: cited from earlier work
From the text: as §1

[5] = target: T2, recombinant Plasmodium vivax SUB1 (PvSUB1) (Plasmodium vivax, UniProt E6Y8B9); set-up: method as in Bouillon et Giganti et al, in preparation; details: ± 1,7; substrate cleaved between the two aspartates, Dabsyl/Edans; ref Bouillon et Giganti et al, in preparation; read-out: apparent Km of PvSUB1 for its substrate; cited from earlier work
T2 construct: Culture supernatant containing the secreted and active PvSUB1 or PfSUB1 recombinant enzymes was harvested; 6xHis (C); made in house; host or cells: Sf9 insect cells (baculovirus)

recombinant PfSUB1 [6] = target: T1, recombinant PfSUB1; set-up: method as in 2 sources, ref 22 = [22]; PMID 12764150; doi:10.1074/jbc.M303827200; 22 Jean L Hackett F Martin SR Blackman MJ 2003 Functional characterization of the propeptide of Plasmodium falciparum subtilisin-like protease-1. J Biol Chem 278 28572 9 12764150 10.1074/jbc.M30382720 ||| ref Bouillon et Giganti et al, in preparation; details: ± 3,4; substrate cleaved between D and N, Dabsyl/Edans; ref Bouillon et Giganti et al, in preparation; read-out: apparent Km of PfSUB1 for its substrate; cited from earlier work
[7] = target: recombinant Plasmodium falciparum subtilisin-like serine protease SUB1 (PfSUB1), purified and active (Plasmodium falciparum) (UniProt Q8I0V0)
[8] = target: recombinant Plasmodium falciparum subtilisin-like serine protease SUB1 (PfSUB1), purified and active (Plasmodium falciparum) (UniProt Q8I0V0); remark: listed apart in the source
[9] = target: recombinant Plasmodium falciparum subtilisin-like serine protease SUB1 (PfSUB1), purified and active (Plasmodium falciparum) (UniProt Q8I0V0); assay: enzyme inhibition assay (Dabsyl/Edans quenched fluorescent peptide substrate); 13 ng purified PvSUB1 or PfSUB1, 25 uM substrate, 20 mM Tris pH 7.5, 25 mM CaCl2, 37 C; inhibitor at ten concentrations from 1 mM to 2 uM; fluorescence read every 3 min for 90 min; N = 3
[10] = target: recombinant Plasmodium vivax SUB1 (PvSUB1), purified and active (Plasmodium vivax) (UniProt E6Y8B9); assay: as above

CC(C)C[C@H](NC(=O)[C@H]1O[C@@H]1C(=O)O)C(=O)NCCCCN=C(N)N (relative stereo) [E64, trans-Epoxysuccinyl-L-leucylamido(4-guanidino)butane]
inhibition of newly formed trophozoites and equivalent segmented schizont accumulation [1]: 91.6%
block of egress of P. falciparum merozoites in vitro [2]: known to block the egress of P. falciparum merozoites in vitro

CC[C@H](C)[C@@H]1NC(=O)CNC(=O)[C@@H](NC(=O)[C@H](C)N)CSSC[C@@H]2NC(=O)[C@@H]3CSSC[C@@H](C(=O)N[C@@H](CC(C)C)C(=O)N[C@H](C(=O)N[C@@H](CCC(N)=O)C(=O)N[C@H](C(=O)N[C@@H](CO)C(=O)O)C(C)C)C(C)C)NC(=O)[C@H](CCCCN)NC(=O)CNC(=O)[C@H](Cc4ccc(O)cc4)NC(=O)[C@H](CCCNC(=N)N)NC(=O)[C@H](CSSC[C@H](NC(=O)[C@H](CC(N)=O)NC(=O)[C@H](CC(=O)O)NC(=O)[C@H](Cc4c[nH]cn4)NC(=O)[C@H](CC(C)C)NC1=O)C(=O)N[C@@H](C(C)C)C(=O)N[C@@H](Cc1ccc(O)cc1)C(=O)N[C@@H](C(C)C)C(=O)N1CCC[C@H]1C(=O)N[C@@H](C)C(=O)N[C@@H](CCC(N)=O)C(=O)N[C@@H](CC(N)=O)C(=O)N1CCC[C@H]1C(=O)N3)NC(=O)[C@H](CCC(N)=O)NC(=O)[C@H](CC(C)C)NC(=O)CNC(=O)[C@H](CCCNC(=N)N)NC2=O [PcFK1]
free energy of binding translated from Ki value (recombinant PfSUB1 [3]): -6.37 kcal/mol
EC50 [4]: 116 µM
IC50, growth of P. falciparum (P. falciparum): low micromolar range
antifungal or antibacterial activity (fungi, bacteria): no antifungal or antibacterial activity
effect on growth or viability of human epithelial cells (human epithelial cells): nor do they affect the growth or viability of human epithelial cells

KLVGADDVSLA [PvSUB1 peptide substrate with fluorophore/quencher Dabsyl/Edans at each edge]
Km [5]: 19.7 µM

KLVSADNIDIS [PfSUB1 peptide substrate with fluorophore/quencher Dabsyl/Edans at each edge]
Km (recombinant PfSUB1 [6]): 30.2 µM

Psalmopeotoxin I (PcFK1), chemically synthesized with an extra serine at the C-term (from UniProt P0C201 52-86) (peptide)
EC50 of PcFK1 on the asynchronous culture of P. falciparum intra-erythrocytic cycle (clone 3D7, 48 hours with the drug) [7]: 116 µM
inhibition of newly formed trophozoites (merozoite egress/invasion, synchronized P. falciparum culture, 12 hr, flow cytometry) at 200 uM PcFK1, compared to the mock control [8]: 56.2%
Ki [9]: 29.3 µM
Ki [10]: 36.3 µM
